As usually defined, the melting point is the temperature, or range, at which the solid turns liquid. On to `Fc1ccc(-c2nnc(S)o2)cc1`, for which the melting point fell in the range of 204 to 206 °C.
For `CC(C)(C)OC(=O)N1CCc2ccccc2C1C(=O)O` (configuration not stated) the value was 142 to 144 °C; for `NNC(=O)c1c[nH]c2ccccc12`, 229 to 231 °C; for `Cc1noc(C)c1CC(=O)O`, 117 to 119 °C.
Take `COc1cc(C=O)ccc1OCC(N)=O`: the melting point fell in the range of 155 to 157 °C.
Molecule `N#Cc1ccccc1CN1C(=O)CCC1=O` registered a melting point of 122 to 124 °C.
As to `Nc1nc(C(=O)O)n[nH]1`, the melting point was 178 to 182 °C.
`O=Cc1ccc(OC(=O)c2cccc([N+](=O)[O-])c2)cc1` registered a melting point of 143 to 145 °C.
Turning to `Cc1ncsc1NC(=O)OC(C)(C)C`, the melting point was 136 to 138 °C.
For `Cc1cc(-c2nnc(CCl)o2)c(C)o1`, the melting point was in the range of 62 to 64 °C.
For `Nc1nc2cc(Cl)cc(Br)c2o1` the value was 228 to 230 °C; for `Nc1ccc(SC(F)(F)F)c(F)c1`, 33 to 35 °C; for `O=C1CCCN1c1cccc([N+](=O)[O-])c1`, 107 to 109 °C.
`COC(=O)c1ccc2nnn(O)c2c1` gave a melting point of 166 to 168 °C.
The molecule `Cc1cc(N)ccc1C(N)=O` displayed a melting point of 154 to 156 °C.
For `CNC(=O)c1n[nH]c(=O)c2ccccc12` the value was 283 to 285 °C; for `O=C(Cc1ccc(Cl)cc1)c1ccccn1`, 49 to 51 °C.
For `CCOc1cc(C=O)cc(Cl)c1O` the value was 145 to 147 °C; for `N#Cc1cccnc1OCC(F)(F)F`, 40 to 42 °C.
Consider `O=C(O)c1cnn(-c2ccccc2)c1Br`, for which the melting point is 214 to 216 °C.
With `CC1=NN(c2nc(C)cc(C)n2)C(=O)C1`, the melting point lay within 109 to 111 °C.
For `CCOC(=O)c1c(C)n(CC)c2ccc(O)cc12` the value was 183 to 185 °C; for `CCOC(=O)c1ccn(-c2ccc(N)cc2)n1`, 97 to 99 °C.
On to `CS(=O)(=O)c1ccc(Br)c(S(=O)(=O)Cl)c1`, for which the melting point lay in the range of 160 to 162 °C.
Molecule `O=C(Nc1cnccn1)C1CCCNC1` (configuration not stated) came in with a melting point of 141 to 143 °C.
Molecule `O=C(c1cccc(F)c1)c1ccccn1` registered a melting point of 37 to 39 °C.
Take `CC(C)C1CNc2ccccc2N1` (configuration not stated): the melting point was 73 to 75 °C.
`Nc1ccccc1CN1CCC(CO)CC1` returned a melting point of 79 to 81 °C.
For `Sc1nc(-c2ccc3c(c2)OCCO3)n[nH]1` the value was 282 to 284 °C.
For `CNS(=O)(=O)c1ccc(S(N)(=O)=O)cc1` the value was 154 to 156 °C; for `CC(c1ccncc1)n1nccc1N` (configuration not stated), 279 to 281 °C.
Regarding `COc1ccc(C(=O)O)cc1-c1ccc(C(C)(C)C)cc1`, the melting point was 259 to 261 °C.
For `O=c1[nH]c(=O)n(Cc2ccccc2)c2ncn(C3CCCC3)c12` the value was 252 to 254 °C.
For `O=C(O)c1cc(C2CC2)nc2c1cnn2C1CCCCC1` the value was 210 to 212 °C; for `O=Cc1cn(-c2ccccc2)nn1`, 97 to 99 °C.
For `CNC(=O)Nc1ccc(N)cc1` the value was 147 to 149 °C; for `O=C1c2ccccc2N2C(=O)CCC2(C(=O)O)N1Cc1ccccc1` (configuration not stated), 134 to 136 °C; for `O=c1n(CCO)nc2ccccn12`, 134 to 136 °C.
`N#Cc1cc2ccccc2[nH]c1=O`: the melting point fell in the range of 327 to 329 °C.
`Cc1c(C(C)N)cnn1-c1ccc(F)cc1` (configuration not stated) yielded a melting point of 42 to 44 °C.
Consider `NC(=O)c1cccc(N)n1`, for which the melting point fell in the range of 141 to 143 °C.
As to `CNC(=O)NC(=O)CCCCl`, the melting point fell in the range of 122 to 124 °C.
For `CC(=O)c1c(C)nsc1N` the value was 183 to 185 °C; for `O=C(NCc1cn[nH]c1)OCc1ccccc1`, 126 to 128 °C; for `Cc1c(C(=O)CBr)oc2ccccc12`, 110 to 112 °C.
For `NC(=O)C(O)C1CC1` (configuration not stated) the value was 115 to 117 °C; for `O=C(O)C1CC(=O)N(Cc2ccccc2)C1` (configuration not stated), 140 to 144 °C; for `O=C(O)C1(O)CCSC1` (configuration not stated), 99 to 101 °C.
For `O=C(O)c1ccc(N2CC=CC2)cc1` the value was 285 to 287 °C.
Consider `CCC(=O)Nc1ccc(Cl)c(N)c1`, for which the melting point is 105 to 107 °C.
For `CCOC(=O)/C(C#N)=C\Nc1cc(C)ccc1OC` the value was 131 to 133 °C; for `COC(=O)c1sc2nc(CCl)nc(Cl)c2c1C`, 125 to 127 °C; for `O=C(O)CNS(=O)(=O)C=Cc1ccccc1`, 80 to 82 °C.
For `O=C(CCl)Nc1ccc(Cl)c(Cl)c1` the value was 103 to 105 °C; for `O=C(O)C1CC(=O)N(c2cccc(Br)c2)C1` (configuration not stated), 142 to 144 °C.
For `N#Cc1ccc(NCCC(N)=O)c(F)c1` the value was 156 to 158 °C; for `Cc1csc(NCC(=O)O)n1`, 224 to 226 °C; for `OCc1cc(Cl)c2c(c1)OCO2`, 101 to 105 °C.
The molecule `O=[N+]([O-])c1cnc(Cl)c(Cl)c1` came in with a melting point of 52 to 54 °C.
For `O=C1NCC(=O)N2CCOCC12` (configuration not stated) the value was 170 to 172 °C; for `O=C(O)CNC(=O)NCc1cccc([N+](=O)[O-])c1`, 153 to 155 °C; for `O=c1sc2ccccc2nc1NO`, 244 to 246 °C.
For `FC(F)(F)CNC(=S)N1CCOCC1` the value was 103 to 105 °C; for `CCOC(=O)c1nc2ccccc2c(=O)[nH]1`, 189 to 193 °C.
As for `Cc1ccc(N2N=C(C(=O)O)NCC2=O)cc1`, the melting point lay within 98 to 100 °C.
For `N#CCc1ccc(OCCBr)cc1` the value was 52 to 54 °C.
`O=C(O)C12CC3CC(C1)CC(C(F)(F)F)(C3)C2` had a melting point of 138 to 140 °C.
For `N#CCc1ccc(OCc2ccccc2N)cc1` the value was 108 to 110 °C; for `CCS(=O)(=O)c1ccc2c(c1)N(CC(=O)O)CC(=O)O2`, 188 to 190 °C.
For `CC(C)(C)c1ccccc1S(=O)(=O)Cl` the value was 59 to 61 °C; for `O=C(O)c1sc(-c2ccccc2)cc1OCc1ccccc1`, 178 to 180 °C; for `CCOc1ccc(C(=O)CC(=O)C(=O)OC)cc1`, 88 to 92 °C.
In the case of `CCOc1ccc(N)c(C(N)=O)c1`, the melting point lay within 148 to 150 °C.
For `O=C(O)C1CC1c1c(F)cccc1F` (configuration not stated) the value was 89 to 91 °C.
For `CC(C)c1nc(C(=O)O)nn1-c1c(Cl)cccc1Cl` the value was 179 to 181 °C.
For `O=C(O)c1cc(Br)c(S(=O)(=O)Cl)s1` the value was 129 to 131 °C.
In turn, `CCOC(=O)c1oc2ccc(Br)cc2c1CBr` gave a melting point of 132 to 134 °C.
For `O=C(O)Cc1cc(-c2ccccc2)on1` the value was 172 to 174 °C; for `CC(=O)c1ccc(S(=O)(=O)N(C)CCCC(=O)O)cc1`, 80 to 82 °C; for `NC(=O)NC(CC(=O)O)c1cccc(Oc2ccccc2)c1` (configuration not stated), 122 to 124 °C.
For `O=C(O)c1cc(F)c(Br)c(S(=O)(=O)Cl)c1` the value was 213 to 215 °C; for `CCC(c1ccc(Br)cc1)N1CCNCC1` (configuration not stated), 65 to 67 °C.
For `O=S(=O)(Cl)c1cn[nH]c1` the value was 99 to 101 °C; for `O=C(Nc1nncs1)C1CCNCC1`, 202 to 204 °C.
As to `O=Cc1cnc2cnccn12`, the melting point is 178 to 180 °C.
For `CCOC(=O)CS(N)(=O)=O` the value was 62 to 64 °C; for `O=C(O)c1ccc(Oc2cccnc2)cc1`, 204 to 206 °C; for `Nc1cccn(Cc2ccccc2)c1=O`, 119 to 121 °C.
Consider `Cc1cc(NS(=O)(=O)c2cccc(C(=O)O)c2)no1`, for which the melting point was 195 to 197 °C.
For `NC1CCCCC1CO` (configuration not stated) the value was 132 to 135 °C.
For `CC(C)Oc1cccc(CNC(=O)CCl)c1` the value was 69 to 71 °C; for `COC(=O)COc1cc(N)c(Cl)cc1C`, 88 to 90 °C; for `CC(C)(C)Oc1ccc(C(=O)O)cn1`, 139 to 141 °C.
For `NNc1nc2cc(F)c(F)cc2[nH]1` the value was 221 to 223 °C; for `COc1ccc([N+](=O)[O-])cc1C#N`, 69 to 71 °C; for `O=C1CCc2c1ccc(Cl)c2Cl`, 82 to 84 °C.
`N#CCC(=O)c1ccccc1F` returned a melting point of 51 to 53 °C.
On to `CCn1c(CCC(=O)O)nc2cc(S(=O)(=O)N(C)C)ccc21`, for which the melting point lay in the range of 186 to 188 °C.
As for `NC(=O)c1cncs1`, the melting point lay within 194 to 196 °C.
Regarding `O=C(O)C(F)(F)c1ccc(F)cc1`, the melting point lay within 99 to 101 °C.
For `O=C1NCCCC1C(F)(F)F` (configuration not stated) the value was 99 to 101 °C; for `O=C(O)c1cccc2[nH]ncc12`, 285 to 287 °C.
For `Cc1ccc2nc(-c3ccc(N4C(=O)C=CC4=O)cc3)sc2c1` the value was 259 to 261 °C.
For `O=C(O)c1cc(-c2ccccc2)nc2onc(C3CC3)c12` the value was 199 to 201 °C.
For the molecule `CC(C)N(C)C(=O)C1CCN(C(=O)CCl)CC1`, the melting point fell in the range of 110 to 112 °C.
The molecule `Ic1ccccc1-c1nn[nH]n1` showed a melting point of 217 to 219 °C.
The molecule `O=C(Nc1ccc(O)cc1)c1cccc([N+](=O)[O-])c1` gave a melting point of 222 to 224 °C.
Consider `Cc1ccc(CNC(=O)c2nnc(CCl)s2)cc1`, for which the melting point is 153 to 155 °C.
For `CC(=O)N1CCC(NC(=O)OCC(F)(F)F)CC1` the value was 115 to 124 °C.
`O=C(O)c1csc(C2CC2)n1` registered a melting point of 123 to 125 °C.
For `O=[N+]([O-])c1ccc2nc(Br)sc2c1` the value was 201 to 203 °C; for `ClCc1ccc(I)cc1`, 49 to 51 °C.
For `COc1cc(Br)c(C=O)c(OC)c1` the value was 89 to 91 °C; for `O=C(c1cccc([N+](=O)[O-])c1)C(F)(F)F`, 53 to 55 °C.
With `CC(O)c1c(Cl)nc2ccccn12` (configuration not stated), the melting point lay within 132 to 134 °C.
For `CC(C)CC(=O)N1Cc2ccccc2CC1C(=O)O` (configuration not stated), the melting point fell in the range of 169 to 171 °C.
Turning to `O=C(O)COc1ccccc1C(F)(F)F`, the melting point lay within 151 to 153 °C.
For `Nc1ccc(C(=O)N2CCc3ccccc32)cc1` the value was 185 to 187 °C; for `O=Cc1cc[nH]c1`, 59 to 61 °C.
On to `Oc1ccc(Oc2ccc(C(F)(F)F)cn2)cc1`, for which the melting point lay within 90 to 92 °C.
For `CC(C)(C)NS(=O)(=O)c1cc(N)ccc1F` the value was 138 to 140 °C; for `CC(C)(C)OC(=O)NN1CC(C(=O)O)CC1=O` (configuration not stated), 169 to 171 °C.

The values above are taken from a melting point compilation (Tetko et al.).
